Laboratory results published in ChEMBL document CHEMBL6134875, “Farnesyl Transferase Inhibitors as a Novel Strategy for Targeting KRAS-Dependent Cancers” (2025).

Tests used:
Format in all cases: functional
NCI-H2122 [1] = assay: Antitumor activity against human NCI-H2122 cells harboring KRAS […] mutant xenografted in BALB/c nude mouse assessed as tumor volume at 100 mg/kg, po administered once daily and measured on day 27 (reference value: 1559.54 +/- 225.48 mm3); settings: time 27 day
NCI-H2122 [2] = assay: Antitumor activity against human NCI-H2122 cells harboring KRAS […] mutant xenografted in BALB/c nude mouse assessed as T/C ratio at 100 mg/kg, po administered once daily and measured on day 27 relative to control; settings: time 27 day
NCI-H2122 [3] = assay: Antitumor activity against human NCI-H2122 cells harboring KRAS […] mutant xenografted in BALB/c nude mouse assessed as tumor growth inhibition at 100 mg/kg, po administered once daily and measured on day 27; settings: NCI-H2122, 648 h, time 27 day, read-out: TGI
NCI-H2122 [4] = assay: Antitumor activity against human NCI-H2122 cells harboring KRAS […] mutant xenografted in BALB/c nude mouse assessed as tumor volume at 15 mg/kg, po administered twice daily and measured on day 27 (reference value: 1559.54 +/- 225.48 mm3); settings: time 27 day
NCI-H2122 [5] = assay: Antitumor activity against human NCI-H2122 cells harboring KRAS […] mutant xenografted in BALB/c nude mouse assessed as tumor volume at 15 mg/kg, po administered once daily and measured on day 27 in presence of adagrasib (reference value: 1559.54 +/- 225.48 mm3); settings: time 27 day
NCI-H2122 [6] = assay: Antitumor activity against human NCI-H2122 cells harboring KRAS […] mutant xenografted in BALB/c nude mouse assessed as T/C ratio at 15 mg/kg, po administered twice daily and measured on day 27 relative to control; settings: time 27 day
NCI-H2122 [7] = assay: Antitumor activity against human NCI-H2122 cells harboring KRAS […] mutant xenografted in BALB/c nude mouse assessed as T/C ratio at 15 mg/kg, po administered once daily and measured on day 27 in presence of adagrasib relative to control; settings: time 27 day
NCI-H2122 [8] = assay: Antitumor activity against human NCI-H2122 cells harboring KRAS […] mutant xenografted in BALB/c nude mouse assessed as tumor growth inhibition at 15 mg/kg, po administered twice daily and measured on day 27; settings: NCI-H2122, 648 h, time 27 day, read-out: TGI
NCI-H2122 [9] = assay: Antitumor activity against human NCI-H2122 cells harboring KRAS […] mutant xenografted in BALB/c nude mouse assessed as tumor growth inhibition at 15 mg/kg, po administered once daily and measured on day 27 in presence of adagrasib; settings: NCI-H2122, 648 h, time 27 day, read-out: TGI
NCI-H2122 [10] = assay: Antitumor activity against human NCI-H2122 cells harboring KRAS […] mutant xenografted in BALB/c nude mouse assessed as tumor volume at 60 mg/kg, po administered twice daily and measured on day 27 (reference value: 1559.54 +/- 225.48 mm3); settings: time 27 day
NCI-H2122 [11] = assay: Antitumor activity against human NCI-H2122 cells harboring KRAS […] mutant xenografted in BALB/c nude mouse assessed as tumor volume at 60 mg/kg, po administered once daily and measured on day 27 in presence of adagrasib (reference value: 1559.54 +/- 225.48 mm3); settings: time 27 day
NCI-H2122 [12] = assay: Antitumor activity against human NCI-H2122 cells harboring KRAS […] mutant xenografted in BALB/c nude mouse assessed as tumor volume at 60 mg/kg, po administered once daily and measured on day 27 in presence of sotorasib (reference value: 1559.54 +/- 225.48 mm3); settings: time 27 day
NCI-H2122 [13] = assay: Antitumor activity against human NCI-H2122 cells harboring KRAS […] mutant xenografted in BALB/c nude mouse assessed as T/C ratio at 60 mg/kg, po administered twice daily and measured on day 27 relative to control; settings: time 27 day
NCI-H2122 [14] = assay: Antitumor activity against human NCI-H2122 cells harboring KRAS […] mutant xenografted in BALB/c nude mouse assessed as T/C ratio at 60 mg/kg, po administered once daily and measured on day 27 in presence of adagrasib relative to control; settings: time 27 day
NCI-H2122 [15] = assay: Antitumor activity against human NCI-H2122 cells harboring KRAS […] mutant xenografted in BALB/c nude mouse assessed as T/C ratio at 60 mg/kg, po administered once daily and measured on day 27 in presence of sotorasib relative to control; settings: time 27 day
NCI-H2122 [16] = assay: Antitumor activity against human NCI-H2122 cells harboring KRAS […] mutant xenografted in BALB/c nude mouse assessed as tumor growth inhibition at 60 mg/kg, po administered twice daily and measured on day 27; settings: NCI-H2122, 648 h, time 27 day, read-out: TGI
NCI-H2122 [17] = assay: Antitumor activity against human NCI-H2122 cells harboring KRAS […] mutant xenografted in BALB/c nude mouse assessed as tumor growth inhibition at 60 mg/kg, po administered once daily and measured on day 27 in presence of adagrasib; settings: NCI-H2122, 648 h, time 27 day, read-out: TGI
NCI-H2122 [18] = assay: Antitumor activity against human NCI-H2122 cells harboring KRAS […] mutant xenografted in BALB/c nude mouse assessed as tumor growth inhibition at 60 mg/kg, po administered once daily and measured on day 27 in presence of sotorasib; settings: NCI-H2122, 648 h, time 27 day, read-out: TGI

C=C(F)C(=O)N1CCN(c2nc(OC[C@@H]3CCCN3C)nc3c2CCN(c2cccc4cccc(Cl)c24)C3)C[C@@H]1CC#N [ADAGRASIB]
Activity (NCI-H2122 [1]): 600.26 mm3 | T/C (NCI-H2122 [2]): 38.49% | inhibition in vivo at 100 mg/kg (NCI-H2122 [3]): 61.5%

Cn1cncc1[C@@]1(N)c2ccc(C#N)c(c2)COc2cccc(c2)-c2cc(C#N)nc3ccc1cc23
Activity (NCI-H2122 [4]): 1062.47 mm3 | Activity (NCI-H2122 [5]): 187.07 mm3 | T/C (NCI-H2122 [6]): 68.13% | T/C (NCI-H2122 [7]): 12% | inhibition in vivo at 15 mg/kg (NCI-H2122 [8]): 31.9% | inhibition in vivo at 15 mg/kg (NCI-H2122 [9]): 88%

Cn1cncc1[C@@](N)(c1ccc(Cl)cc1)c1ccc2c(c1)c(-c1cccc(Cl)c1)cc(=O)n2C [TIPIFARNIB]
Activity (NCI-H2122 [10]): 1000.38 mm3 | Activity (NCI-H2122 [11]): 177.5 mm3 | Activity (NCI-H2122 [12]): 233.84 mm3 | T/C (NCI-H2122 [13]): 64.15% | T/C (NCI-H2122 [14]): 11.38% | T/C (NCI-H2122 [15]): 14.99% | inhibition in vivo at 60 mg/kg (NCI-H2122 [16]): 35.9% | inhibition in vivo at 60 mg/kg (NCI-H2122 [17]): 88.6% | inhibition in vivo at 60 mg/kg (NCI-H2122 [18]): 85%

C=CC(=O)N1CCN(c2nc(=O)n(-c3c(C)ccnc3C(C)C)c3nc(-c4c(O)cccc4F)c(F)cc23)[C@@H](C)C1 [SOTORASIB]
Activity (NCI-H2122 [1]): 643.34 mm3 | T/C (NCI-H2122 [14]): 41.25% | inhibition in vivo at 100 mg/kg (NCI-H2122 [3]): 58.8%
